Assay results as given in patent publication US12495798B2, “Nicotinamide compound and herbicidal composition comprising compound” (KOREA RESEARCH INSTITUTE OF CHEMICAL TECHNOLOGY, priority 2019, dated 2025).

How the values were obtained:
Format in all cases: in vivo
black nightshade = test: Herbicidal activity test against upland field weeds (soil treatment test); parameters: key to Soil treatment herbicidal activity, black nightshade: 0 (no control); 100 (complete control); conditions: 50 g ai/ha, scale 0 (no control) to 100 (complete control); for pest or weed control at 50 g/ha: Solanum nigrum
Summary of the method: (§1)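 Pre-emergence test: seeds or rootstocks were sown in fertilized sandy loam, and the next day the soil surface was sprayed with compound at 50 or 75 g a.i./ha in 50% acetone/0.1% Tween-20. Plants were grown in a greenhouse (30±5 °C, 14/10 h light/dark), then visually scored 0–100 against untreated at 14 d (21 d if needed).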

crabgrass = test: as above; parameters: key to Soil treatment herbicidal activity, Crabgrass: 0 (no control); 100 (complete control); conditions: 50 g ai/ha, scale 0 (no control) to 100 (complete control)
Summary of the method: as §1

fall panicum = test: Herbicidal activity test against upland field weeds (foliar treatment test); conditions: 50 g ai/ha, scale 0-100; for pest or weed control at 50 g/ha: Panicum dichotomiflorum
Summary of the method: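 Weeds were raised from seed or rootstocks in horticultural soil in a greenhouse (30±5° C., 14/10 h light/dark), then foliage was hand-sprayed with compound at 50 or 75 g a.i./ha in 50% acetone with 0.1% Tween-20. Control was scored visually 0–100 against untreated plants after 14 days, or 21 if needed.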

Structure (SMILES)	pest or weed control at 50 g/ha (black nightshade)	Soil treatment herbicidal activity, Crabgrass (crabgrass)	pest or weed control at 50 g/ha (fall panicum)	Soil treatment herbicidal activity, black nightshade (black nightshade)	Foliar treatment herbicidal activity, Fall panicum (fall panicum)
Cn1nnc(CSCc2nc(C(F)F)ccc2C(=O)Nc2nnnn2C)n1 [Compound No. 2-108, 6-(difluoromethyl)-N-(1-methyl-1H-tetrazol-5-yl)-2-((((2-methyl-2H-tetrazol-5-yl)methyl)thio)methyl)nicotinamide]	30%	0	50%		
Cn1nnc(CSCc2nc(C(F)(F)F)ccc2C(=O)N(C(=O)c2ccccc2)c2nnnn2C)n1 [Compound No. 2-109, N-benzoyl-N-(1-methyl-1H-tetrazol-5-yl)-2-((((2-methyl-2H-tetrazol-5-yl)methyl)thio)methyl)-6-(trifluoromethyl)nicotinamide]		0	95%	100	
COc1nc(COCc2nc(C(F)(F)F)ccc2C(=O)Nc2nnnn2C)nn1C [Compound No. 2-129, 2-(((5-methoxy-1-methyl-1H-1,2,4-triazol-3-yl)methoxy)methyl)-N-(1-methyl-1H-tetrazol-5-yl)-6-(trifluoromethyl)nicotinamide]		0	50%	100	
Cn1nc(COCc2nc(C(F)(F)F)ccc2C(=O)Nc2nnnn2C)nc1Cl [Compound No. 2-135, 2-(((5-chloro-1-methyl-1H-1,2,4-triazol-3-yl)methoxy)methyl)-N-(1-methyl-1H-tetrazol-5-yl)-6-(trifluoromethyl)nicotinamide]	60%	0	50%		
COC(=O)OC(C)N(C(=O)c1ccc(C(F)(F)F)nc1COCc1nnn(C)n1)c1nnnn1C (stereo not drawn) [Compound No. 4-4, methyl(1-(N-(1-methyl-1H-tetrazol-5-yl)-2-(((2-methyl-2H-tetrazol-5-yl)methoxy)methyl)-6-(trifluoromethyl)nicotinamido)ethyl)carbonate]		0		100	98
CCOC(=O)OC(C)N(C(=O)c1ccc(C(F)(F)F)nc1COCc1nnn(C)n1)c1nnnn1C (stereo not drawn) [Compound No. 4-8, ethyl(1-(N-(1-methyl-1H-tetrazol-5-yl)-2-(((2-methyl-2H-tetrazol-5-yl)methoxy)methyl)-6-(trifluoromethyl)nicotinamido)ethyl)carbonate]		100		100	80
CCOC(=O)OC(C)n1nnn(C)c1=NC(=O)c1ccc(C(F)(F)F)nc1CSCc1nnn(C)n1 (stereo not drawn) [Compound No. 4-10, ethyl (1-(4-methyl-5-((2-((((2-methyl-2H-tetrazol-5-yl)methyl)thio)methyl)-6-(trifluoromethyl)nicotinoyl)imino)-4,5-dihydro-1H-tetrazol-1-yl)ethyl)carbonate]		100		100	95
